Consider two compounds from patent US20200054646A1, “USE OF PHENOTHIAZINE DERIVATIVE IN THE TREATMENT OF INFECTIOUS PURPURA OR PURPURA FULMINANS” (priority 2016, published 2020).

Common to all, as to assay type: cell-based, Neisseria meningitidis
Test [1] relates to N. meningitidis Nm2C4.3 strain. As to the kind of experiment: Bactericidal activity on N. meningitidis in liquid culture (colony forming unit count). The settings on record: for viable count of the culture that contained 10^7 CFU/ml: 15 min treatment. Here is the method:
N. meningitidis Nm2C4.3 strain grown in liquid culture at 10^7 CFU/ml were treated with increasing concentrations of Trifluoperazine (10 to 50 μM) or Gentamicin (150 μg/ml) for 15 minutes (A) Bactericidal activity was determined by the count of colony forming units on GCB agar plates 24 h after treatment. (B) Images of the non-treated bacteria or bacteria treated with 30 μM TFP grown for 24 h on GCB agar plates.
Nm2C4.3, a piliated capsulated Opa^−Opc^− variant of the serogroup C meningococcal clinical isolate 8013, was cultured in Dulbecco's Modified Eagle Medium (DMEM) 4.5 g/L-Glutamax media 0,1% BSA during two hours at 37° C. 5% C02. A bacterial suspension at optical density (OD) 0.1 was then distributed in 24-well plate (1 ml/well). After 1 hour of incubation, Trifluoperazine (Sigma #T8516, stock solution in PBS) was added to obtain final concentrations of 10, 20, 30, 40, and 50 μM. Gentamicin (150 μg/ml in DMEM) and PBS alone were used as controls. After 15 min treatment, serial dilutions were performed in physiological water and 100 μl of each dilution were plated on Petri dishes containing GCB solid media (BD, Difco GC media) containing supplements, incubated overnight and the colony forming units were counted.

Test [2] has as its system Nm2C4.3 microcolonies on HBMEC. As to the kind of experiment: Dispersion of meningococcal microcolonies at the surface of infected human endothelial cells. The procedure: Human […] microvascular endothelial cells (HBMEC) were infected with Nm2C4.3 for 1 h 30, treated with Trifluoperazine (10-40 μM) for 30 minutes, before fixation and immunofluorescence analysis using anti-Nm2C4.3 antibody and Alexa Fluor 633 Phalloidin. (A) Representative fluorescence microscopy showing bacterial colony (white dots) formed at the surface of the endothelial cells. (B) Quantification of the bacterial colonization was performed using Image J software.
HBMEC, a human endothelial cell line isolated from bone marrow capillaries (Schweitzer et al., 1997) were grown in Dulbecco's Modified Eagle Medium (DMEM) 4.5 g/L-Glutamax (ThermoFischer) 10% FBS. Cells were grown on Thermanox coverslips coated with gelatin 2% (BD Difco #214340) for 2 days to reach confluency. Cells were then infected with a suspension of Nm2C4.3 (˜10^7 CFU/ml) in DMEM/FBS during 30 minutes to allow bacterial adhesion. Cells were then washed three times with medium to remove non-adherent bacteria and infection was pursued for 1 h 30: adherent bacteria grew at the endothelial cell surface and formed micro-colonies. Trifluoperazine was then added to obtain final concentrations of 10, 20, 30 and 40 μM. After incubation for 30 minutes, cells were washed and fixed in 4% Paraformaldehyde for 10 min, washed three times with PBS, and permeabilized with 0.1% Triton X-100 in PBS for 10 min. Cells were blocked for 30 min with 3% BSA in PBS and were incubated for 2 h with the primary antibodies (Rabbit polyclonal anti-Nm2C4.3 strain, kindly provided by Dr X. Nassif, INEM, Paris). After three washes with PBS, cells were incubated for 1 h with […] anti-rabbit IgG (Jackson ImmunoResearch Laboratories), together with Alexa Fluor 633 Phalloidin (Thermofischer) and DAPI (0.5 mg ml-1, Sigma Aldrich) to stain Actin and nuclei, respectively. Labelled preparations were mounted in Glycergel media (DAKO) and image acquisitions were performed with a DM16000 microscope (Leica, X40). Quantification was done with ImageJ software (NIH). Results are presented as a vascular colonisation index corresponding to the area occupied by the fluorescently labelled bacteria per fields in relation to the area occupied by the fluorescently labelled human endothelial cells (Actin staining). Statistical analysis were performed with Student t test.

For test [3], the system named is N. meningitidis 2C4.3 bacterial aggregates. As to the kind of experiment: microbe, parasite or virus in culture. Here is the method: N. meningitidis 2C4.3 was grown in liquid culture at 10^7 CFU/ml for 2 h to form bacterial aggregates and were treated with increasing concentrations of Trifluoperazine (10 to 40 μM), Gentamicin (150 μg/ml) or cefotaxim (20 μg/ml) for 20 minutes and bacterial aggregates were immediately visualized using a phase-contrast microscope. […] (B) Quantification of the bacterial aggregation was performed using Image J software.
N. meningitidis 2C4.3 wild type strain and the isogenic derivative mutant PilT ([…]PilT) were grown in liquid culture at 10^7 CFU/ml for 2 h to form bacterial aggregates and then treated with 50 μM Trifluoperazine. Time lapse phase-contrast video microscopy was performed to visualize the effect on bacterial aggregates over time. Images were taken at the indicated time points of the video.
N. meningitidis 2C4.3 was grown in liquid culture at 10^7 CFU/ml for 2 h to form bacterial aggregates and were treated with 30 μM Trifluoperazine for 30 minutes to induce bacterial dispersion or PBS as a control. The medium was replaced to remove the Trifluoperazine and the reformation of bacterial aggregates were visualized overtime using a phase-contrast microscope.
FIG. 7. […] Bacteria were grown in suspension for 2 h then Phenothiazine derivatives were added at the indicated concentrations.
N. meninigitidis 2C4.3 strain was grown in suspension in wells of a 24 well plate, containing 1 ml of DMEM medium supplemented with 10% heat-inactivated fetal calf serum. After 2 h of growth, Trifluoperazine (or control vehicle) was added at various concentrations ranging from 10 to 40 μM for 20 min and the bacterial aggregates were visualized over time using a phase-contrast microscope.
N. meninigitidis 2C4.3 strain was grown in suspension in wells of a 24 well plate, containing 1 ml of DMEM medium supplemented with 10% heat-inactivated fetal calf serum. After 2 h of growth, various concentrations (0.5 to 80 μM) of phenothiazine-derivative compounds or control vehicle (PBS or DMSO) were added to the wells for 30 min and the bacterial aggregates were visualized using a phase-contrast microscope.
Were tested phenothiazine-derivative compounds of: • the Piperazine group: Trifluoperazine (Sigma #T8516), Fluphenazine (Sigma #F4765), Prochlorperazine (Sigma #P9178) Perphenazine (Sigma #P6402); • the Piperidine group: Thioridazine (Sigma #T9025) and Mesoridazin (Sigma #M4068); • the Aliphatic group: Chlorpromazine (Sigma #C8138), Promazine (Sigma #P6656), Triflupromazine (Sigma #1686003) and levomepromazine (Sigma #L0500000).

As for `CN[C@@H]1[C@@H](O)C(O[C@@H]2[C@@H](O)[C@H](O[C@H]3O[C@H]([C@@H](C)NC)CC[C@H]3N)[C@@H](N)C[C@H]2N)OC[C@]1(C)O` (stereo partly drawn) [Gentamicin, (3R,4R,5R)-2-{[(1S,2S,3R,4S,6R)-4,6-diamino-3-{[(2R,3R,6S)-3-amino-6-[(1R)-1-(methylamino)ethyl]oxan-2-yl]oxy}-2-hydroxycyclohexyl]oxy}-5-methyl-4-(methylamino)oxane-3,5-diol], in test [1] (Gentamicin 150 μg/ml, 15 min), the “bactericidal effect (in words)” value was “killed all bacteria”. Further, the “dispersion of microcolonies at the endothelial cell surface” value in test [2] (Gentamicin 150 μg/ml) was “poorly induced the dispersion”. Besides, the “dispersion of bacterial aggregates formed in suspension” value in test [3] (Gentamicin 150 μg/ml, 20 minutes) is recorded as “did not significantly induce the dispersion”.
Turning to `CN1CCN(CCCN2c3ccccc3Sc3ccc(C(F)(F)F)cc32)CC1` [Trifluoperazine], the “viable count of the culture that contained 10^7 CFU/ml” value in test [1] (Trifluoperazine 50 μM) was 10^3 CFU/ml; in test [1] (Trifluoperazine 10 to 30 μM), 10^6 CFU/ml. Further, the “concentration range of dose-dependent microcolony dispersion” value in test [2] (30 min, HBMEC and primary HDMEC) lay in the range of 10 to 40 µM. In addition, the “dispersion of compact microcolonies already established at the endothelial cell surface” value in test [2] (treatment for 30 min, HBMEC (also HDMEC)) is on record as “induced their dispersion”. Further, the “reversibility of the effect on aggregation upon removal” value in test [3] (30 μM for 30 minutes, then medium replaced) was “reversible”. The “dispersion of bacterial aggregates pre-formed for two hours” value in test [3] (10 to 40 μM, 20 min) was “induced their dispersion”. Also, in test [3] (20 min treatment, suspension), the “concentration range of dose-dependent dispersion of aggregates” value lay within 10 to 40 µM. In test [3] (Neisseria meningitidis, 0.5 h, read-out: Concentration promoting efficient meningococcal dispersal (~80%)), the EC80 turned out to be 30 µM. Also, in test [3] (time lapse video microscopy, 50 μM), the “time after addition at which dispersion occurs” value fell in the range of 10 to 15 min.
